Laboratory results as given in patent publication US11617754B2, “Methods of treating heart failure with preserved ejection fraction” (Poxel SA, priority 2017, dated 2023).

Assays:
Type in all cases: in vivo, rat
Zucker fa/fa rats [1] = assay: Cardiac hemodynamics (left ventricular pressure-volume curves) in Zucker fa/fa rats
Protocol: (§1) Experiments were performed on 12-week-old Male Zucker fa/fa rats or lean control rats purchased from Ch. River (US).
(§2) Animals were kept 2 per cage in standard laboratory conditions, and drugs were administered by gavage (at 9 am and at 6 pm) at the dose of 150 mg/kg bid and administered for 9 or 90 days. Imeglimin's effects on cardiac dysfunction were assessed. • First experiment protocol:
(§3) The Zucker fa/fa animals were randomized on their body weight in two groups and three groups were then constituted: • Lean rats (Treated with vehicle n=12) • Control Zucker fa/fa rats (Treated with vehicle n=18) • Imeglimin treated Zucker fa/fa rats at the dose of 150 mg/kg bid (n=18)
After a short-term treatment (9 days), cardiac function (echocardiography and MRI) and cardiac hemodynamics were assessed (1 h after the last treatment) on all rats. • Second experiment protocol:
(§4) The Zucker fa/fa animals were randomized on their body weight in two groups and three groups were then constituted: • Lean rats (Treated with vehicle n=18) • Control Zucker fa/fa rats (Treated with vehicle n=24) • Imeglimin treated Zucker fa/fa rats at the dose of 150 mg/kg bid (n=24)
(§5) After a long-term treatment (90 days), cardiac function (echocardiography and MRI) and cardiac hemodynamics were assessed (1 h after the last treatment) on all rats.
The imeglimin suspension was prepared at the concentrations used in the study (150 mg/kg) and homogenized in 10 mL of the Methylcellulose solution. The drug suspension was prepared on the day of administration.
Left ventricle function was assessed using left pressure volume curves after 9 or 90 days of treatment, as previously described (Fang Y et al, J Mol Cell Cardiol., 2011, 51:168-176; Fang Y H et al, Journal of Cardiovascular Pharmacology, 2012, 59: 260-267). In brief, a 2F miniaturized combined conductance catheter-micromanometer (model SPR-819, Millar Instruments) connected to a pressure-conductance unit (MPCU-200, Millar) was advanced retrograde via the carotid artery into the left ventricle. This catheter has a micro-manometer surrounded by 4 platinum electrodes; the two outermost electrodes generate a current of 0.1 mA at a frequency of 20 kHz, which is sensed by the two innermost electrodes. Pressure-Volume (PV) loops were recorded at baseline and during loading by gently occluding the abdominal aorta with a cotton swab. Data were stored and analysed by using Millar conductance data acquisition and analysis software. Finally, the following parameters were measured/calculated from the pressure-volume curves: • Left ventricular end-diastolic pressure; • Left ventricular end-systolic pressure; • Left ventricular relaxation constant Tau; • Left ventricular end-diastolic pressure-volume relation; and • Left ventricular end-systolic pressure-volume relation. Coronary Endothelial Function

Zucker fa/fa rats [2] = assay: Echocardiography, cardiac output in Zucker fa/fa rats; conditions: 150 mg/kg bid, 90 days, vs untreated Zucker fa/fa
Protocol: as §1, §2, §3
(§6) After a short-term treatment (9 days), cardiac function (echocardiography and MRI) and cardiac hemodynamics were assessed (1 h after the last treatment) on all rats. • Second experiment protocol: […]
as §5
Studies were performed on rats after 9 and 90 days of treatment. […] LV diameters were measured by the American Society of Echocardiography leading-edge method from at least 3 consecutive cardiac cycles. […]

Zucker fa/fa rats [3] = assay: Myocardial perfusion by MRI (arterial spin labeling) in Zucker fa/fa rats; conditions: 150 mg/kg bid, vs untreated Zucker fa/fa
Protocol: as §1, §2, §3, §6, §5
The ECG signal was monitored by placing two subcutaneous electrodes on each side of the rat at chest level. […] Upon subtraction of an image acquired without spin labelling, the background signal from static spins is removed and the difference image can be used to quantify perfusion. […]

[4] = system: septal coronary artery of Zucker fa/fa rats; assay: Coronary endothelial function: acetylcholine-induced relaxation of septal coronary artery from treated Zucker fa/fa rats; conditions: 150 mg/kg bid, administration for 9 and 90 days, serotonin-precontracted segments
Protocol: as §1, §2
Coronary endothelial function was assessed after 9 or 90 days of treatment, as described previously (Fang Y H et al, Journal of Cardiovascular Pharmacology, 2012, 59: 260-267; Mulder et al., Eur Heart J., 2008, 29:2171-2179). In brief, at the end of the left ventricular function assessment, the heart was removed and immediately placed in cold oxygenated Krebs buffer. A 1.5- to 2-mm-long segment of arteries were carefully dissected and mounted in a small vessel myograph. Normalization procedure was performed after an equilibration period. Segments with an internal diameter<170 μm was excluded to avoid mechanical endothelial injury and unspecific dysfunction. Concentration-response curves to acetylcholine (10^−8 to 3×10^−5 mol/L) were performed in serotonin-precontracted segments (10^−5 mol/L).

Zucker fa/fa rats [5] = assay: Cardiac histology: LV collagen density (Sirius red) in Zucker fa/fa rats; conditions: 150 mg/kg bid, D90, mean ± SEM
Protocol: as §1, §2, §4
At the end of the treatment period, the heart was taken out. After fixation, the left ventricle was cut in 3 sections of identical thickness. The sections of the heart were dehydrated and embedded in paraffin. 3 μm-thick sections were cut from each block and mounted on glass slides. Sections were stained with Sirius red for the determination of collagen. Slides were enlarged 500 times using a microscope connected to an image analysis system, as previously described (Mulder et al., J. Am. Coll. Cardiol., 1997). Collagen density was calculated in the left ventricle as the surface occupied by collagen divided by the surface of the image.

Zucker fa/fa rats [6] = assay: Left ventricular oxidative stress: ROS production in LV homogenates by EPR, Zucker fa/fa rats; conditions: 150 mg/kg bid
Protocol: as §1, §2
Left ventricular reactive oxygen species production level were evaluated in left ventricular homogenates (obtained after 9 or 90 days of treatment) by electron paramagnetic resonance spectroscopy (EPR) using the spin probe 1-hydroxy-3-methoxycarbonyl-2,2,5,5-tetramethylpyrrolidine (CMH, Noxygen, Germany), as previously described (Mulder P, Eur Heart J. 2008; 29:2171-2179). Stock solution of CMH (50 mM) were prepared in Krebs-HEPES buffer (0.1 M NaCl, 5 mM KCl, 2.5 mM CaCl2, 1.2 mM MgSO4, 25 mM NaHCO3, 1 mM KH2PO4, 5.6 mM D(+)-Glucose, 20 mM Na-HEPES, pH 7.4) containing 25 μM deferoxamine and 5 μM diethyldithiocarbamate. […] The oxidation of CMH into the stable 3-methoxycarbonyl-proxyl (CM•), driven mainly by superoxide and peroxynitrite reactions, was recorded using a MiniScope MS-200 X-band spectrometer (Magnettech, Germany). […] Intensity of the spectra was measured from the height of the central line. CM• production was quantified using CP° standard and expressed in μmol of CM• per mg of total proteins.

[7] = 150 mg/kg bid, 90 days, vs untreated Zucker fa/fa

CC1N=C(N)NC(N(C)C)=N1 (single isomer, unassigned; (+)) [Imeglimin, (+)-2-amino-3,6-dihydro-4-dimethylamino-6-methyl-1,3,5-triazine]
reduction of the left ventricular end-diastolic pressure-volume relation (Zucker fa/fa rats [1]; 150 mg/kg bid by gavage, 9 days of treatment): about 26% | reduction of the left ventricular end-diastolic pressure-volume relation (Zucker fa/fa rats [1]; 150 mg/kg bid by gavage, 90 days of treatment): ~58% | reduction of the left ventricular end-diastolic pressure-volume relation (Zucker fa/fa rats [1]; 150 mg/kg bid, 9 days, vs untreated Zucker fa/fa): already significant | LV compliance increase (Zucker fa/fa rats [1]; 150 mg/kg bid, 90 days of treatment): about 50% | LV end-diastolic pressure (FIG. 1A) (Zucker fa/fa rats [1]; [7]): significant reduction | LV end-diastolic pressure volume relation (FIG. 1C) (Zucker fa/fa rats [1]; [7]): significant reduction | LV relaxation constant Tau (FIG. 1B) (Zucker fa/fa rats [1]; [7]): significant reduction | cardiac output (FIG. 2A) (Zucker fa/fa rats [2]): increased | increase in the myocardial perfusion (Zucker fa/fa rats [3]; 9 days): already significant | myocardial perfusion (FIG. 2B) (Zucker fa/fa rats [3]; 90 days): increased | acetylcholine-induced relaxation of septal coronary artery (FIG. 3) [4]: prevented the impairment | LV collagen density (Zucker fa/fa rats [5]): 2.52 ± 0.20 % | LV ROS production (Zucker fa/fa rats [6]; D9, mean ± SEM): 27.61 ± 1.29 AU · μg^−1 · h^−1 | LV ROS production (Zucker fa/fa rats [6]; D90, mean ± SEM): 34.02 ± 1.49 AU · μg^−1 · h^−1
